What all share (assay type): cell-based, human
The subject of test [1] is A549 cells. The test can be described thus: MTT cell viability assay, A549 cells. The conditions noted are these: for IC50: MTT, 24 h incubation, read-out: IC50 A549. The protocol: (§1) The human breast cancer cell lines MCF-7, MDA-MB-231, human hepatocellular liver cell line HepG2 and human lung carcinoma epithelial cells A549 were purchased from American Type Culture Collection (ATCC, Manassas, VA, USA). Normal human hepatic LO2 cells were obtained from the Institute of Cell Biology, Academic Sinica (Shanghai, China). The cells were grown in an atmosphere of 5% CO2 at 37 °C in RPMI 1640 medium supplemented with 10% fetal bovine serum, 100 U/mL penicillin and […] streptomycin.
(§2) The viability of cells was measured by a colorimetric MTT assay. Briefly, 1 × 10^4 cells/well in 96-well microplates were exposed to different concentration of polyynes and their acetylated derivatives respectively for 24 h incubation, following addition of 20 μL MTT solution (4 mg/mL) to each well for another 4 h incubation at 37 °C. Finally, the medium was removed and replaced with 100 μL dimethyl sulfoxide which was added to dissolve the dye crystal presented in cells. The absorbance was recorded at 570 nm using a microplate reader (1420 Multilabel counter victor^3, Perkin-Elmer, Waltham, MA, USA). The results were expressed as ratio of absorbance between treatments and control cells (solvent vehicle set at 100%). Four replicate wells were tested per assay which was repeated three times.
(In general: Tetrazolium dyes change colour on reduction, which living cells bring about.)

In test [2] the test system is MDA-MB-231 cells. Briefly: Cell cycle analysis by PI staining and flow cytometry. The note with it: 24 h; for G2/M arrest rate at low concentration: OHR-1 7.5 μM, OHR-2 2.5 μM, OHR-3 5 μM, OHR-5 7.5 μM; for G2/M arrest rate at high concentration: OHR-1 15 μM, OHR-2 5 μM, OHR-3 10 μM, OHR-5 15 μM. The procedure:
Cells were seeded in 6-well tissue culture plates and treated with DMSO control or different concentration of OHR-1, -2, -3 and -5 for 24 h. Then, the cells were harvested and fixed gently with cold 70% ethanol at −20 °C overnight. Finally, the cells were washed with PBS and re-suspended in 300 μL of propidium iodide (PI) stain solution (20 μg/mL PI and 8 μg/mL DNase-free RNase) for 20 min at room temperature in the dark. The cells were analyzed with a flow cytometry and Mod Fit LT 3.0 software (Variety Software House, Topsham, ME, USA). For each measurement, at least 20,000 cells were counted.
Background: Flow cytometry measures light scatter and fluorescence of single cells or particles in a stream.

Test [3] deals with MDA-MB-231 cells. Briefly: MTT cell viability assay, MDA-MB-231 cells. The conditions noted are these: MTT, 24 h incubation; read-out: IC50 MDA-MB-231. The protocol: as §1, §2
For test [4], the system named is HepG2 cells. The test can be described thus: MTT cell viability assay, HepG2 cells. The conditions noted are these: MTT, 24 h incubation; read-out: IC50 HepG2. The protocol: as §1, §2
Test [5] deals with LO2 cells. The test can be described thus: MTT cell viability assay, normal hepatic LO2 cells. The conditions noted are these: normal human hepatic cells, MTT, 24 h incubation; read-out: IC50 LO2. The procedure: as §1, §2
Test [6] has as its system MDA-MB-231 cells. The test can be described thus: Hoechst 33342 staining for apoptosis. The conditions noted are these: OHR-1 15 μM, OHR-2 5 μM, OHR-3 10 μM, OHR-5 15 μM; 12 h. The protocol: MDA-MB-231 cells were seeded in the flat-bottomed 6-well plates and treated with OHR-1, -2, -3 and -5. Cells treated with solvent vehicle served as controls. In 12 h after treatment, cells were fixed in 4% polyoxymethylene solution for 30 min and then washed with PBS. The fixed cells were incubated with Hoechst 33342 for 15 min at room temperature in the dark and then washed with PBS twice, which were finally observed under a fluorescence microscope (Convert Fluorescence Microsope Axiovert 200, HAL 100, HBO 100, Carl Zeiss MicroImaging Co., Ltd., Oberkochen, Germany) at a magnification of ×400.

Test [7] relates to MDA-MB-231 cells. The test can be described thus: JC-1 mitochondrial membrane potential. The note with it: high concentration (OHR-1 15 μM, OHR-2 5 μM, OHR-3 10 μM, OHR-5 15 μM), 24 h. The procedure: The MDA-MB-231 cells were treated with OHR-1, -2, -3 and -5 for 24 h in a humidified atmosphere (37 °C with 5% CO2). The cells were collected and responded in 0.5 mL culture medium with JC-1 dye (1 μg/mL) for 20 min at 37 °C in dark. Fluorescence was monitored by both flow cytometry (BD Biosciences, San Jose, CA, USA) and fluorescence microscope. The Δψm were indicated by the rato of […] fluorescence intensity. The data were expressed as ratio of Δψm between treatments and control cells (solvent vehicle set at 100%).

The subject of test [8] is MCF-7 cells. Briefly: MTT cell viability assay, MCF-7 cells. The conditions noted are these: MTT, 24 h incubation; read-out: IC50 MCF-7. The protocol:
as §1, §2

Several values for one entry are separate records, joined by “and”; a condition that tells them apart may be missing. Identical values can stand only once.

As a reminder, the IC50 is the point on the concentration scale where inhibition reaches its midpoint. As for “(3S,8S,Z)-3-Hydroxyheptadeca-9-en-4,6-diyn-8-yl acetate [OHR-3]”, the IC50 was 30.1 µM and 31.4 µM in test [1]; 6.6 ± 0.8 µM in test [3]; 31.5 ± 2.1 µM in test [4]; 31.5 ± 4 µM in test [5]; 25.8 ± 5.8 µM in test [8]. Also, the “A549 cell growth inhibited” value in test [1] (at 60 µM, p < 0.01) amounted to 90.8%. Besides, in test [2], the “G2/M arrest rate at low concentration” value is 24.2% ± 2.9%. The “G2/M arrest rate at high concentration” value in test [2] is 25.6% ± 7.5%. In addition, the “induction of apoptosis (Hoechst staining)” value (from here on “induction of apoptosis”) in test [6] is “induce obvious apoptosis”. For the same substance, the “effect on mitochondrial membrane potential Δψm (JC-1)” value in test [7] was “decreasing the Δψm”.
In the case of “(3S,8S,Z)-Heptadeca-1,9-dien-4,6-diyne-3,8-diyl diacetate [OHR-2]”, the half-maximal inhibitory concentration (IC50) was found to be 24.7 ± 5.6 µM in test [1]; 4.8 ± 0.5 µM in test [3]; 6.6 ± 1.5 µM in test [4]; 32.1 ± 9 µM in test [5]; 36.9 ± 4.8 µM in test [8]. Also, in test [2], the “G2/M arrest rate at low concentration” value is given as 22.6% ± 2.6%. The “G2/M arrest rate at high concentration” value in test [2] is listed as 30.4% ± 3.1%. Further, the “induction of apoptosis” value in test [6] is “induce obvious apoptosis”. Besides, the “effect on mitochondrial membrane potential Δψm (JC-1)” value in test [7] is “decreasing the Δψm”.
Take “(3S,8S,Z)-Heptadeca-9-en-4,6-diyne-3,8-diyl diacetate [OHR-1]”: the half-maximal inhibitory concentration (IC50) in test [1] was over 300 µM; in test [3] it was 13.9 ± 3.4 µM; in test [4], 115 ± 17.1 µM; in test [5] it was over 300 µM; in test [8], over 300 µM. The “G2/M arrest rate at low concentration” value in test [2] is 24.6% ± 3.6%. Moreover, the “G2/M arrest rate at high concentration” value in test [2] is recorded as 31.7% ± 3.2%. Further, the “induction of apoptosis” value in test [6] is reported as “induce obvious apoptosis”. Besides, in test [7], the “effect on mitochondrial membrane potential Δψm (JC-1)” value is “decreasing the Δψm”.
For “(3S,8S,Z)-3-Hydroxyheptadeca-1,9-dien-4,6-diyn-8-yl acetate [OHR-5]”, the IC50 was found to be 30.1 ± 4.4 µM in test [1]; 13.9 ± 5.8 µM in test [3]; 43.7 ± 6.6 µM in test [4]; 31.1 ± 1.8 µM in test [5]; 30.6 ± 3.1 µM in test [8]. The “G2/M arrest rate at low concentration” value in test [2] is 33.2% ± 4.6%. Besides, the “G2/M arrest rate at high concentration” value in test [2] was 38.0% ± 1.7%. Besides, in test [6], the “induction of apoptosis” value is “induce obvious apoptosis”. Besides, the “effect on mitochondrial membrane potential Δψm (JC-1)” value in test [7] was “decreasing the Δψm”.
